Experimental findings from article PMC8250858, “A Systematic Study of the Stability, Safety, and Efficacy of the de novo Designed Antimicrobial Peptide PepD2 and Its Modified Derivatives Against Acinetobacter baumannii” (Frontiers in Microbiology, 2021) are described below.

For this assay, the system named is A. baumannii ATCC 17978. It is filed as cell-based, Acinetobacter baumannii. The note with it: spotted on MHA plate, 24 h. On the procedure:
Following CLSI guideline M07-A11, single bacterial colonies of A. baumannii ATCC 17978 grown on Müller–Hinton agar (MHA) plates were picked and inoculated in 4 mL of Müller–Hinton broth (MHB) at 37°C and shaken at 180 rpm for 4∼6 h. The bacterial broth was diluted in the same medium to give a cell density of 1∼2 × 10^8 CFU/mL (OD600 = 0.38∼0.4 for A. baumannii) (Supplementary Figure 1; [Dillon et al., 2020]). Then, the broth was diluted 20-fold. Peptides were dissolved in water and filtered through a 0.2-μm filter to make a stock solution. The peptide concentration was quantified by the UV280. Then, the peptide solution was serially diluted in MHB to final peptide concentrations of 1, 2, 4, 8, 16, and 32 μg/mL. One hundred microliters of serially diluted peptide and 10 μL of bacterial culture were mixed in a 96-well polystyrene plate. Each well contained approximately 5 × 10^5 CFU/mL. The positive control was a mixture of 100 μL of MHB and 10 μL of the bacterial culture. The negative control was 110 μL of MHB. The plates were incubated at 37°C without shaking. […] The bacterium-peptide mixtures (the mixture without visible growth and the mixture containing a two-fold […] peptide concentration than the mixture without growth), positive control, and negative control (3 μL each) were spotted on an MHA plate and incubated at 37°C for 24 h. The MBC was determined as the lowest peptide concentration at which no colonies formed.
The MIC and MBC of our designed peptides against A. baumannii were obtained by using the broth microdilution method in the CLSI protocol. The bacterial cell number was carefully counted, and a final cell density of 5 × 10^5 CFU/mL in each well was used in the MIC test (Supplementary Figure 1). The minimal peptide concentration at which no bacterial growth was observed was taken as the MIC value. The culture after peptide treatment was spotted on an MHA plate, and the peptide concentration that could kill all the bacteria was defined as the MBC. The MIC/MBC and hemolytic activity of these peptides are shown and compared in Figure 1.

With Ac-WKKIKKIIKKIKKI-NH2 [pepI2], the “MBC A. baumannii 17978” value stood at 4 µg/mL.
